According to patent publication US9598419B1, “Imidazotriazine and imidazodiazine compounds” (Universite de Montreal, priority 2014, dated 2017):

Experiments:
PAR1 = biological target: T1, PAR1 (Homo sapiens, UniProt P25116); conditions: ACS patients, phase III; cited from earlier work
T1 construct: host or cells: ACS patients (clinical trial)
T1 sequence (P25116 22-425): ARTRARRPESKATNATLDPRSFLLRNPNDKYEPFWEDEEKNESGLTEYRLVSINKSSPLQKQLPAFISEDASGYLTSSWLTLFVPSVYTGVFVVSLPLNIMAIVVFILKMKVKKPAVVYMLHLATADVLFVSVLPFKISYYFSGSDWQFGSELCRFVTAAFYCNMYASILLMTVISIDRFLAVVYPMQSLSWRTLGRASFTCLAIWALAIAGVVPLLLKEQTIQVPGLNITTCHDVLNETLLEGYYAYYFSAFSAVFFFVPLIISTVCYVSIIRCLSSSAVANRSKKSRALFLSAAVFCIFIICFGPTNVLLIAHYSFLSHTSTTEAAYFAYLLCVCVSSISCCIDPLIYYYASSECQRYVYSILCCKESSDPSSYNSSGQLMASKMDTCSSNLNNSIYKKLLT

PAR4 = biological target: T2, PAR4 (Homo sapiens, UniProt Q96RI0); assay: washed platelet aggregation assay (PAR4 agonist peptides); format: cell-based; conditions: washed platelets
T2 construct: PRP was isolated by centrifugation at 170 g for 14 minutes and platelets were further pelleted; from tissue; host or cells: human washed platelets
T2 sequence (Q96RI0 18-385): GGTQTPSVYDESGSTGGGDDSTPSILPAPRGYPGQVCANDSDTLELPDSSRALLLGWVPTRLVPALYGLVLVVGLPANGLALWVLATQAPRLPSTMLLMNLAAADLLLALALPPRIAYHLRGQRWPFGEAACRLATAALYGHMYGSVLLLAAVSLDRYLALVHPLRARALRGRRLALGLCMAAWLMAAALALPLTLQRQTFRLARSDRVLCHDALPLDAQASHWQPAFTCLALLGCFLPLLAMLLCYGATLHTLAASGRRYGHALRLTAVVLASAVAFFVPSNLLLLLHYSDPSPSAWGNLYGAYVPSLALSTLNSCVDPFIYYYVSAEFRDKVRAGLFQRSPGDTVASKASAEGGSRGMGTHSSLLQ
Description: Human blood was collected in ACD (85 mM tri-sodium citrate, 78 mM citric acid, 110 mM D-glucose, pH 4.4) at a ratio of 1.4 ml per 10 ml blood. PRP was isolated by centrifugation at 170 g for 14 minutes and platelets were further pelleted by centrifugation at 1300 g for 6 minutes. Platelets were washed once with 10 ml ACD containing 1 mg/ml bovine serum albumin Platelets were resuspended at ˜2.5×10^8/ml in Tyrode's Buffer (137 mM NaCl, 2 mM KCl, 1.0 mM MgCl2, 1 mM CaCl2, 5 mM glucose, 20 mM HEPES pH 7.4).

[1] = biological target: T3, protease-activated receptor type 4 (PAR4) (Homo sapiens, UniProt Q96RI0); conditions: quoted from the abstract; cited from earlier work
T3 sequence (Q96RI0 18-385): T2 sequence (Q96RI0 18-385)

**Q.** Which results are given for `CCOC(=O)N[C@@H]1CC[C@@H]2[C@@H](C1)C[C@H]1C(=O)O[C@H](C)[C@H]1[C@H]2/C=C/c1ccc(-c2cccc(F)c2)cn1` [vorapaxar]?
**A.** cardiovascular events (PAR1): did not significantly reduce; risk of major bleeding (PAR1): significantly increased

**Q.** With `C[C@H](N)C(=O)N[C@@H](Cc1ccc(O)cc1)C(=O)N1CCC[C@H]1C(=O)NCC(=O)N[C@@H](CCCCN)C(=O)N[C@@H](Cc1ccccc1)C(=O)O` [AYPGKF] as the compound, how does the EC50 (PAR4) read?
**A.** Its EC50 is 12 µM.

**Q.** Which “inhibition of PAR4-dependent platelet activation” value [1] does the source give for `CCOC(=O)c1ccc(-c2nn(Cc3ccccc3)c3ccccc23)cc1` [ethyl 4-(1-benzyl-1H-indazol-3-yl)benzoate] here?
**A.** Its value is “selective and potent inhibitor”.
